According to EP4232018B1 (priority 2020, dated 2022):
“Also recorded” adds a separate entry of the source.

Experiments:
[1] = test system: African swine fever virus; type: cell-based
SARS-CoV-2 = type: cell-based

Cc1ccc(C(C)C)c(OC(=O)C[N+](C)(C)CCCCCCCCCC[N+](C)(C)CC(=O)Oc2cc(C)ccc2C(C)C)c1.[Cl-].[Cl-] [Compound V, N1,N10-bis(2-(2-isopropyl-5-methylphenoxy)-2-oxoethyl)-N1,N1,N10,N10-tetramethyldecane-1,10-diaminium dichloride]
inhibiting African swine fever virus [1]: effective at inhibiting African swine fever virus | viral multiplication (rosetta) [1]: Cells grew well and were protected from African swine fever virus infection. No rosetta were observed; also recorded: Cells grew well, but protection against ASFV infection decreased and some rosetta became visible

Cc1ccc(C(C)C)cc1OC(=O)C[N+](C)(C)CCCCCCCCCC[N+](C)(C)CC(=O)Oc1cc(C(C)C)ccc1C.[Cl-].[Cl-] [Compound IV, N1,N10-bis(2-(5-isopropyl-2-methylphenoxy)-2-oxoethyl)-N1,N1,N10,N10-tetramethyldecane-1,10-diaminium dichloride]
effect on cell viability (A549 NSCLC cells): does not affect cell viability | inhibition of the SARS-CoV-2 reporter gene (SARS-CoV-2): inhibits the SARS-CoV-2 reporter gene in a dose dependent manner | inhibiting African swine fever virus [1]: effective at inhibiting African swine fever virus | viral multiplication (rosetta) [1]: Cells grew well and were protected from African swine fever virus infection. No rosetta were observed; also recorded: Cells grew well, but protection against ASFV infection decreased and some rosetta became visible
